Key:
[1] = Dynamic Vapor Sorption (DVS) analysis / hygroscopicity of salt forms; format: physicochemical; details: for Hygroscopicity by DVS analysis / Hygroscopicity: DVS at 25° C.; for Hygroscopicity: Table 4
Procedure: DVS analysis was carried out using a Surface Measurement System DVS Intrinsic analyzer (SMS, UK). The instrument balance was calibrated with standard weights. Approximately 15-20 mg of sample was loaded into a pan for analysis. The sample was analyzed at 25° C. in 10% relative humidity (RH) steps from 50% to 95% RH (adsorption cycle), from 95% to 0% RH (desorption cycle), and from 0% to 50% RH (adsorption cycle). The movement from one step to the next occurred either after satisfying the equilibrium criterion of 0.002% weight change (dm/dt) or, if the equilibrium criterion was not met, after six hours. […]

[2] = Solid form stability (physical by XRPD, chemical by GC purity) under stress storage; format: physicochemical; details: for 25° C./60% RH 2-weeks stability, Purity (%) / 40° C./75% RH 2-weeks stability, Purity (%) / 60° C. 2 weeks stability, Purity (%): GC purity; for 60° C. 2 weeks stability, XRPD: about 20 mg in glass weighing bottles
Procedure: Standard XRPD patterns were collected using a Bruker D8 Advance diffractometer (Bruker, GER). The X-ray source is a copper (Cu) tube that was operated at 40 kV and 40 mA. Powder samples were prepared on zero-background silicon (Si) holders using manual light pressure to keep the sample surfaces flat. Each sample was analyzed from 3 to 45° 2θ with an effective step size of 0.02° 2θ and 0.08 s exposure time.
Shimadzu GC-2104 (Shimadzu, Japan) was utilized for chemical purity characterization.
Several salts were further investigated for hygroscopicity, purity, and solid form stability. To determine solid form stability, glass weighing bottles containing about 20 mg samples were kept under (1) 60° C., (2) 25° C./60% RH, and (3) 40° C./75% RH conditions, respectively. After 1 week and 2 weeks, respectively, XRPD and GC analyses were conducted to investigate the physical and chemical stability of the selected forms under corresponding conditions.

Row | SMILES | Hygroscopicity by DVS analysis [1] | Form conversion after DVS test ([1]; after DVS test) | Hygroscopicity [1] | 25° C./60% RH 2-weeks stability, XRPD [2] | 25° C./60% RH 2-weeks stability, Purity (%) [2] | 40° C./75% RH 2-weeks stability, XRPD [2] | 40° C./75% RH 2-weeks stability, Purity (%) [2] | 60° C. 2 weeks stability, XRPD [2] | 60° C. 2 weeks stability, Purity (%) [2] | DVS weight gain at 80% RH ([1]; 25° C.) | DVS weight gain at 95% RH ([1]; 25° C.) | Deliquescence with high humidity [1] | DVS weight gain at 0% RH ([1]; 0% RH, 25° C.)
1 | C1CCC(NC2CCCCC2)CC1.O=C(O)[C@H]1C[C@@H](OC(F)(F)F)C1 [VIa-1a DCHA salt Form A] | non-hygroscopic | no form conversion was detected | – | – | – | – | – | – | – | – | – | – | –
2 | C1CCC(NC2CCCCC2)CC1.O=C(O)[C@H]1C[C@@H](OC(F)(F)F)C1 [VIa-1a, DCHA salt Form A] | – | – | non- | No change | 99.7% | No change | 99.3% | Sublimed | – | – | – | – | –
3 | N=C(N)NCCC[C@H](N)C(=O)O.O=C(O)[C@H]1C[C@@H](OC(F)(F)F)C1 [VIa-1a, L-Arginine salt Form A] | – | – | hygroscopic | No change | 98.8% | Deliquesced | – | additional peak | 99.2% | – | – | – | –
4 | N=C(N)NCCC[C@H](N)C(=O)O.O=C(O)[C@H]1C[C@@H](OC(F)(F)F)C1 [VIa-1a, L-arginine salt Form A] | high hygroscopicity | – | – | – | – | – | – | – | – | about 28% | about 74% | deliquesced with high humidity | –
5 | CC(C)(C)N.O=C(O)[C@H]1C[C@@H](OC(F)(F)F)C1 [VIa-1a, TBA salt Form A] | – | – | non- | – | – | – | – | Sublimed^& | – | – | – | – | –
6 | NC(CO)(CO)CO.O=C(O)[C@H]1C[C@@H](OC(F)(F)F)C1 [VIa-1a, TMA salt Form A] | non-hygroscopic | – | non- | No change | 99.4% | No change | 99.3% | No change | 99.3% | about 0.1% | about 47% | may deliquesce with high humidity (>90% RH) | about 7%
